Results taken from US6737383B1, “Herbicidal oxadiazolidines” (priority 1999, dated 2004).

What was measured:
bedstraw = assay: Test B pre/postemergence bedstraw; type: in vivo, Galium aparine; conditions: Preemergence
Method in brief: (§1)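 Herbicidal effect was estimated by eye on a ten-point control scale after plants spent twelve to sixteen days in a greenhouse following soil or foliar treatment. Foliar sprays targeted plants at one to four leaves; all doses were formulated in a non-phytotoxic solvent with surfactant.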

blackgrass = assay: Test B pre/postemergence blackgrass; type: in vivo, Alopecurus myosuroides
Method in brief: as §1

surinam grass = assay: Test B pre/postemergence surinam grass; type: in vivo, Brachiaria decumbens
Method in brief: as §1

cocklebur = assay: Test B pre/postemergence cocklebur; type: in vivo, Xanthium strumarium
Method in brief: as §1

corn = assay: Test B pre/postemergence corn; type: in vivo, Zea mays
Method in brief: as §1

crabgrass = assay: Test B pre/postemergence crabgrass; type: in vivo, Digitaria sanguinalis
Method in brief: as §1

giant foxtail = assay: Test B pre/postemergence giant foxtail; type: in vivo, Setaria faberii
Method in brief: as §1

morningglory = assay: Test B pre/postemergence morningglory; type: in vivo, Ipomoea hederacea
Method in brief: as §1

pigweed = assay: Test B pre/postemergence pigweed; type: in vivo, Amaranthus retroflexus
Method in brief: as §1

rape = assay: Test B pre/postemergence rape; type: in vivo, Brassica napus
Method in brief: as §1

soybean = assay: Test B pre/postemergence soybean; type: in vivo, Glycine max
Method in brief: as §1

sugar beet = assay: Test B pre/postemergence sugar beet; type: in vivo, Beta vulgaris
Method in brief: as §1

velvetleaf = assay: Test B pre/postemergence velvetleaf; type: in vivo, Abutilon theophrasti
Method in brief: as §1

wheat = assay: Test B pre/postemergence wheat; type: in vivo, Triticum aestivum
Method in brief: as §1

wild oat = assay: Test B pre/postemergence wild oat; type: in vivo, Avena fatua
Method in brief: as §1

purple nutsedge = assay: Test B pre/postemergence purple nutsedge; type: in vivo, Cyperus rotundus
Method in brief: as §1

[1] = Postemergence, Rate 62 g/ha, scale 0 to 10, 0 is no effect, 10 is complete control
[2] = Postemergence, Rate 125 g/ha, scale of 0 to 10 where 0 is no effect and 10 is complete control
[3] = Preemergence, Rate 125 g/ha, scale of 0 to 10 where 0 is no effect and 10 is complete control
[4] = Preemergence, Rate 250 g/ha, scale 0 (no effect) to 10 (complete control)
[5] = Rate 62 g/ha, Preemergence, scale 0 to 10
[6] = Rate 250 g/ha, Postemergence, scale 0 to 10, 0 is no effect, 10 is complete control
[7] = Rate 500 g/ha, Postemergence, scale 0 to 10, 0 is no effect, 10 is complete control
[8] = Rate 500 g/ha, Preemergence, scale 0 to 10 (0 no effect, 10 complete control)

C#CCCn1c(=O)on(C(=O)N(c2ccc(F)cc2F)C(C)C)c1=O [Compound 744]
9: Plant response rating, Blackgrass (blackgrass; [3]) | Blackgrass plant response rating (blackgrass; [4]) | Blackgrass plant response rating (blackgrass; [8]) | B. signalgrass plant response rating (surinam grass; [4]) | B. signalgrass plant response rating (surinam grass; [8]) | Plant response rating, Crabgrass (crabgrass; [3]) | Crabgrass plant response rating (crabgrass; [4]) | Crabgrass plant response rating (crabgrass; [5]) | Crabgrass plant response rating (crabgrass; [7]) | Plant response rating, Giant foxtail (giant foxtail; [3]) | Giant foxtail plant response rating (giant foxtail; [4]) | Giant foxtail plant response rating (giant foxtail; [5]) | Redroot pigweed plant response rating (pigweed; [4]) | Redroot pigweed plant response rating (pigweed; [8]) | Rape plant response rating (rape; [8]) | Wild oats plant response rating (wild oat; [4]) | Wild oats plant response rating (wild oat; [8])
3: Corn plant response rating (corn; [6]) | Plant response rating, Crabgrass (crabgrass; [1]) | Rape plant response rating (rape; [6]) | Soybean plant response rating (soybean; [2]) | Wheat plant response rating (wheat; [4]) | Wild oats plant response rating (wild oat; [5]) | Nutsedge plant response rating (purple nutsedge; [6])
7: Corn plant response rating (corn; [8]) | Sugarbeets plant response rating (sugar beet; [4]) | Sugarbeets plant response rating (sugar beet; [8]) | Wheat plant response rating (wheat; [7]) | Nutsedge plant response rating (purple nutsedge; [8])
10: Crabgrass plant response rating (crabgrass; [8]) | Giant foxtail plant response rating (giant foxtail; [8])
4: Crabgrass plant response rating (crabgrass; [2]) | Morningglory plant response rating (morningglory; [7]) | Redroot pigweed plant response rating (pigweed; [5]) | Rape plant response rating (rape; [5]) | Soybean plant response rating (soybean; [6])
2: B. signalgrass plant response rating (surinam grass; [2]) | Plant response rating, Morningglory (morningglory; [1]) | Morningglory plant response rating (morningglory; [2]) | Morningglory plant response rating (morningglory; [6]) | Rape plant response rating (rape; [2]) | Plant response rating, Soybean (soybean; [1]) | Plant response rating, Sugarbeets (sugar beet; [3]) | Velvetleaf plant response rating (velvetleaf; [7]) | Velvetleaf plant response rating (velvetleaf; [8]) | Wild oats plant response rating (wild oat; [7])
8: Bedstraw plant response rating (bedstraw; Rate 500 g/ha, scale 0 to 10 (0 no effect, 10 complete control)) | Plant response rating, B. signalgrass (surinam grass; [3]) | Crabgrass plant response rating (crabgrass; [6]) | Giant foxtail plant response rating (giant foxtail; [2]) | Giant foxtail plant response rating (giant foxtail; [6]) | Giant foxtail plant response rating (giant foxtail; [7]) | Plant response rating, Redroot pigweed (pigweed; [3]) | Redroot pigweed plant response rating (pigweed; [7]) | Rape plant response rating (rape; [7]) | Plant response rating, Wild oats (wild oat; [3])
5: Plant response rating, Blackgrass (blackgrass; [1]) | Blackgrass plant response rating (blackgrass; [2]) | Blackgrass plant response rating (blackgrass; [6]) | Blackgrass plant response rating (blackgrass; [7]) | B. signalgrass plant response rating (surinam grass; Preemergence, Rate 62 g/ha, scale of 0 to 10 where 0 is no effect and 10 is complete control) | B. signalgrass plant response rating (surinam grass; [6]) | Corn plant response rating (corn; [4]) | Corn plant response rating (corn; [7]) | Soybean plant response rating (soybean; [7]) | Sugarbeets plant response rating (sugar beet; [7]) | Wheat plant response rating (wheat; [6]) | Wheat plant response rating (wheat; [8]) | Nutsedge plant response rating (purple nutsedge; [4])
0: Plant response rating, Bedstraw (bedstraw; Rate 125 g/ha, scale of 0 to 10 where 0 is no effect and 10 is complete control) | Bedstraw plant response rating (bedstraw; Rate 250 g/ha, scale 0 (no effect) to 10 (complete control)) | Bedstraw plant response rating (bedstraw; Rate 62 g/ha, scale 0 to 10) | Plant response rating, B. signalgrass (surinam grass; [1]) | Plant response rating, Cocklebur (cocklebur; [1]) | Cocklebur plant response rating (cocklebur; [2]) | Plant response rating, Cocklebur (cocklebur; [3]) | Cocklebur plant response rating (cocklebur; [4]) | Cocklebur plant response rating (cocklebur; [5]) | Cocklebur plant response rating (cocklebur; [6]) | Cocklebur plant response rating (cocklebur; [7]) | Cocklebur plant response rating (cocklebur; [8]) | Plant response rating, Corn (corn; [1]) | Corn plant response rating (corn; [2]) | Plant response rating, Corn (corn; [3]) | Corn plant response rating (corn; [5]) | Plant response rating, Morningglory (morningglory; [3]) | Morningglory plant response rating (morningglory; [4]) | Morningglory plant response rating (morningglory; [5]) | Morningglory plant response rating (morningglory; [8]) | Plant response rating, Redroot pigweed (pigweed; [1]) | Redroot pigweed plant response rating (pigweed; [2]) | Redroot pigweed plant response rating (pigweed; [6]) | Plant response rating, Rape (rape; [1]) | Plant response rating, Soybean (soybean; [3]) | Soybean plant response rating (soybean; [4]) | Soybean plant response rating (soybean; [5]) | Soybean plant response rating (soybean; [8]) | Plant response rating, Sugarbeets (sugar beet; [1]) | Sugarbeets plant response rating (sugar beet; [2]) | Sugarbeets plant response rating (sugar beet; [5]) | Sugarbeets plant response rating (sugar beet; [6]) | Plant response rating, Velvetleaf (velvetleaf; [1]) | Velvetleaf plant response rating (velvetleaf; [2]) | Plant response rating, Velvetleaf (velvetleaf; [3]) | Velvetleaf plant response rating (velvetleaf; [4]) | Velvetleaf plant response rating (velvetleaf; [5]) | Velvetleaf plant response rating (velvetleaf; [6]) | Plant response rating, Wheat (wheat; [1]) | Wheat plant response rating (wheat; [2]) | Plant response rating, Wheat (wheat; [3]) | Wheat plant response rating (wheat; [5]) | Plant response rating, Wild oats (wild oat; [1]) | Wild oats plant response rating (wild oat; [2]) | Wild oats plant response rating (wild oat; [6]) | Plant response rating, Nutsedge (purple nutsedge; [1]) | Plant response rating, Nutsedge (purple nutsedge; [3])
6: Blackgrass plant response rating (blackgrass; [5]) | B. signalgrass plant response rating (surinam grass; [7]) | Plant response rating, Giant foxtail (giant foxtail; [1]) | Plant response rating, Rape (rape; [3]) | Rape plant response rating (rape; [4]) | Nutsedge plant response rating (purple nutsedge; [7])
